Values after ≈ are worked out from the molar mass of the structure shown. Where two headings read alike, the source gives them in different places.
How the values were obtained:
Assay in all cases: In vitro evaluation of azole compounds, MIC
Type in all cases: cell-based
Prevotella intermedia = conditions: one table line per isolate; for MIC: read-out: MIC's of drug needed to inhibit the growth of organism
[1] = test system: Prevotella melaninogenica; conditions: one table line per isolate; for MIC: read-out: MIC's of drug needed to inhibit the growth of organism
Prevotella bivia = conditions: one table line per isolate; for MIC: read-out: MIC's of drug needed to inhibit the growth of organism
[2] = test system: Peptostreptococcus asaccharolyticus; conditions: Peptoniphilus asaccharolyticus, one table line per isolate, read-out: MIC's of drug needed to inhibit the growth of organism
Lactobacillus species = conditions: read-out: MIC's of drug needed to inhibit the growth of organism
[3] = test system: Peptostreptococcus magnus; conditions: Finegoldia magna, one table line per isolate, read-out: MIC's of drug needed to inhibit the growth of organism
Bacillus theta = conditions: read-out: MIC's of drug needed to inhibit the growth of organism
Prevotella disiens = conditions: one table line per isolate; for MIC: read-out: MIC's of drug needed to inhibit the growth of organism
[4] = test system: Peptostreptococcus tetradius; conditions: for MIC: Anaerococcus tetradius, read-out: MIC's of drug needed to inhibit the growth of organism
Gardnerella vaginalis = conditions: one table line per isolate, read-out: MIC's of drug needed to inhibit the growth of organism
Bacillus fragilis = conditions: read-out: MIC's of drug needed to inhibit the growth of organism
Lactobacillus plantarum = conditions: Lactiplantibacillus plantarum, read-out: MIC's of drug needed to inhibit the growth of organism
Mobiluncus mulieris = conditions: read-out: MIC's of drug needed to inhibit the growth of organism
[5] = test system: Lactobacillus acidophilus; conditions: one table line per isolate; for MIC: read-out: MIC's of drug needed to inhibit the growth of organism
[6] = Peptostreptococcus tetradius, one table line per isolate

| Structure (SMILES) | MIC (Prevotella intermedia) [µg/mL] | MIC (Prevotella bivia) [µg/mL] | MIC [2] [µg/mL] | MIC (Lactobacillus species) [µg/mL] | MIC (Bacillus theta) [µg/mL] | MIC (Bacillus fragilis) [µg/mL] | MIC (Mobiluncus mulieris) [µg/mL] | MIC [5] [µg/mL] | MIC [4, 6] [µg/mL] | MIC's of drug needed to inhibit the growth of organism [4, 6] [µg/mL] | MIC's of drug needed to inhibit the growth of organism (Prevotella intermedia) [µg/mL] | MIC [1] [µg/mL] | MIC [3] [µg/mL] | MIC (Prevotella disiens) [µg/mL] | MIC (Lactobacillus plantarum) [µg/mL] | also measured |
| --- | --- | --- | --- | --- | --- | --- | --- | --- | --- | --- | --- | --- | --- | --- | --- | --- |
| OC(Cn1cncn1)(Cn1cncn1)c1ccc(F)cc1F [Fluconazole] | > 2050 | > 2050 | > 2050 | > 2050 | > 2050 | > 2050 | > 2050 | > 2050 | – | – | – | > 2050 | > 2050 | > 2050 | > 2050 | MIC's of drug needed to inhibit the growth of organism [4]: 2048 µg/mL; MIC [4]: > 2050 µg/mL; MIC (Gardnerella vaginalis): > 2050 µg/mL |
| Clc1ccc(COC(Cn2ccnc2)c2ccc(Cl)cc2Cl)c(Cl)c1 (stereo not shown) [Miconazole] | 64 (≈ 154 µM) | 128 (≈ 308 µM) | – | > 128 | 128 (≈ 308 µM) | > 128 | 8 (≈ 19.2 µM) | > 128 | – | – | – | 64 (≈ 154 µM) | – | 64 (≈ 154 µM) | 32 (≈ 76.9 µM) | MIC's of drug needed to inhibit the growth of organism (Prevotella bivia): 64 µg/mL |
| CCS(=O)(=O)CCn1c([N+](=O)[O-])cnc1C [Tinidazole] | 0.5 (≈ 2.02 µM) | 1 (≈ 4.04 µM) | 1 (≈ 4.04 µM) | > 128 | 1 (≈ 4.04 µM) | 0.5 (≈ 2.02 µM) | 1 (≈ 4.04 µM) | > 128 | 0.5 (≈ 2.02 µM) | 0.25 | 1 | 2 (≈ 8.09 µM) | – | – | 0.65 (≈ 2.63 µM) | MIC's of drug needed to inhibit the growth of organism [1]: 1 µg/mL; MIC's of drug needed to inhibit the growth of organism [5]: <128 µg/mL |

Continued, in another order:

| MIC (Prevotella intermedia) [µg/mL] | MIC (Prevotella bivia) [µg/mL] | MIC [2] [µg/mL] | MIC (Lactobacillus species) [µg/mL] | MIC (Bacillus theta) [µg/mL] | MIC (Bacillus fragilis) [µg/mL] | MIC (Mobiluncus mulieris) [µg/mL] | MIC [5] [µg/mL] | MIC [4, 6] [µg/mL] | MIC's of drug needed to inhibit the growth of organism [4, 6] [µg/mL] | MIC's of drug needed to inhibit the growth of organism (Prevotella intermedia) [µg/mL] | Structure (SMILES) | MIC [1] [µg/mL] | MIC [3] [µg/mL] | MIC (Prevotella disiens) [µg/mL] | MIC (Lactobacillus plantarum) [µg/mL] | also measured |
| --- | --- | --- | --- | --- | --- | --- | --- | --- | --- | --- | --- | --- | --- | --- | --- | --- |
| 1 (≈ 5.84 µM) | 1 (≈ 5.84 µM) | – | > 32 | 2 (≈ 11.7 µM) | 0.5 (≈ 2.92 µM) | 4 (≈ 23.4 µM) | > 32 | 1 (≈ 5.84 µM) | 0.5 | – | Cc1ncc([N+](=O)[O-])n1CCO [Metronidazole] | – | – | 0.5 (≈ 2.92 µM) | 1 (≈ 5.84 µM) | MIC's of drug needed to inhibit the growth of organism (Prevotella disiens): 1 µg/mL |
| 128 (≈ 240 µM) | 256 (≈ 481 µM) | 256 (≈ 481 µM) | 512 (≈ 962 µM) | 256 (≈ 481 µM) | 256 (≈ 481 µM) | 256 (≈ 481 µM) | 512 (≈ 962 µM) | 256 (≈ 481 µM) | – | 256 | CC(C)N1CCN(c2ccc(OCC3COC(Cn4cncn4)(c4ccc(Cl)cc4Cl)O3)cc2)CC1 (stereo not shown) [Terconazole] | 64 (≈ 120 µM) | 256 (≈ 481 µM) | 128 (≈ 240 µM) | 256 (≈ 481 µM) | – |

Source: US20060105008A1, “Compositions and methods for reducing vaginal pH” (priority 2002, published 2006)
